We go through twelve compounds from ChEMBL document CHEMBL1128865, “A systematic study of P1P3 spanning sidechains for the inhibition of HIV-1 protease” (Bioorg Med Chem Lett, 1995).

Molecules are shown by their SMILES. pEC50, pIC50: −log10 of the molar value. Some results are limits rather than exact numbers.

Experiment [1] deals with CCRF-CEM. The experiment is described as follows: Concentration required for inhibitory activity against CEM cells in a whole cell assay. The format is functional. Particulars: Homo sapiens, read-out: ED50 (the source's name).
Experiment [2] deals with Human immunodeficiency virus type 1 protease (Human immunodeficiency virus 1, UniProt Q72874). Nature of the experiment: Inhibitory activity against HIV-1 protease.
Experiment [3] has as its system CCRF-CEM. The experiment is described as follows: Concentration required for inhibitory activity against CEM cells in a whole cell assay. Format: functional. To be noted: Homo sapiens, read-out: ED50 (the source's name).

For `CC(C)(C)NC(=O)[C@@H]1C[C@@H]2CCCC[C@@H]2CN1C[C@@H](O)[C@H](Cc1ccccc1)NC(=O)[C@H](CC(N)=O)NC(=O)c1ccc2ccccc2n1`, the pEC50 in the experiment on CCRF-CEM [1] was 8.82.

As usually defined, the pIC50 is the negative decadic logarithm of the IC50, by convention in mol/L. Read a high pIC50 as a low IC50. `CC(C)(C)NC(=O)c1ccccc1C[C@@H](O)[C@H](CSc1ccccc1)NC(=O)[C@H](CC(N)=O)NC(=O)OCc1ccccc1` had a pIC50 in experiment [2] of 7.85.

In experiment [2], `CC(C)(C)NC(=O)c1ccccc1C[C@@H](O)[C@H](CSc1ccccc1)NC(=O)[C@H](CC(N)=O)NC(=O)c1ccc2ccccc2n1` showed a pIC50 of 8.96. This pIC50 lies 1.11 log units higher than the previous one.

Regarding `CC(C)(C)NC(=O)c1ccccc1C[C@@H](O)[C@H](CSc1ccccc1)NC(=O)CCC(N)=O`, the pIC50 in experiment [2] was < 6.82.

With `CC(C)(C)NC(=O)c1ccccc1C[C@@H](O)[C@H](CSc1ccc2ccccc2c1)NC(=O)[C@H](CC(N)=O)NC(=O)c1ccc2ccccc2n1`, in experiment [2], the negative logarithm of the IC50 (pIC50) was > 9.60.

For `CC(C)(C)NC(=O)c1ccccc1C[C@@H](O)[C@H](CSc1ccc2ccccc2c1)NC(=O)[C@H](CC(N)=O)NC(=O)OCc1ccccc1`, the pIC50 in experiment [2] is 8.82.

For the compound `CC(C)(C)NC(=O)c1ccccc1C[C@@H](O)[C@H](Cc1ccccc1)NC(=O)[C@H](CC(N)=O)NC(=O)c1ccc2ccccc2n1`, the pEC50 in the experiment with CCRF-CEM [3] was 7.64.

With `CC(C)(C)NC(=O)[C@@H]1C[C@@H]2CCCC[C@@H]2CN1C[C@@H](O)[C@H](CSc1ccc2ccccc2c1)NC(=O)[C@H](CC(N)=O)NC(=O)c1ccc2ccccc2n1`, the pEC50 with CCRF-CEM [1] is 8.85. For the same compound, in experiment [2], the pIC50 is > 9.60.

In experiment [2], `CC(=O)N[C@@H](CC(N)=O)C(=O)N[C@@H](CSc1ccc2ccccc2c1)[C@H](O)Cc1ccccc1C(=O)NC(C)(C)C` had a negative logarithm of the IC50 (pIC50) of 8.96.

Compound `CC(=O)N[C@@H](CC(N)=O)C(=O)N[C@@H](CSc1ccccc1)[C@H](O)Cc1ccccc1C(=O)NC(C)(C)C` showed a negative logarithm of the IC50 (pIC50) in experiment [2] of 7.72.

For `CC(C)(C)NC(=O)[C@@H]1C[C@@H]2CCCC[C@@H]2CN1C[C@@H](O)[C@H](CSc1ccccc1)NC(=O)[C@H](CC(N)=O)NC(=O)c1ccc2ccccc2n1`, in the experiment with CCRF-CEM [1], the pEC50 is 8.89. Moreover, the pIC50 in experiment [2] was 8.82.

For `CC(C)(C)NC(=O)c1ccccc1C[C@@H](O)[C@H](CSc1ccc2ccccc2c1)NC(=O)CCC(N)=O`, the pIC50 in experiment [2] was < 7.10.
